Where two headings read alike, the source gives them in different places.
Tests used:
[1] = test system: Key Broadleaf Weed and Crop Species; assay: Post-emergent Test II herbicidal activity (Table 15); type: in vivo; details: post-emergence, 336 h, 14 d; for pest or weed control at 35 g/ha: 35 g ai/ha; for pest or weed control at 70 g/ha: 70 g ai/ha; for pest or weed control at 140 g/ha: 140 g ai/ha
Outline: (§1)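 Plants at first-second true leaf stage, grown 7-21 d in greenhouse (~15 h photoperiod, 23-29 °C day), were track-sprayed at 187 L/ha with compound in acetone/DMSO/water/isopropanol/crop oil/Triton X-155 at a high rate plus 1/2× to 1/16× dilutions. Injury scored visually after 14 d versus untreated plants, 0 (none) to 100% (complete kill).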

[2] = test system: Key Grass and Sedge Weeds as well as Grass Crops; assay: Post-emergent Test II herbicidal activity (Table 16); type: in vivo; details: post-emergence, 336 h, 14 d; for pest or weed control at 35 g/ha: 35 g ai/ha; for pest or weed control at 70 g/ha: 70 g ai/ha; for pest or weed control at 140 g/ha: 140 g ai/ha
Outline: as §1

[3] = Abutilon theophrasti, velvetleaf (Abutilon theophrasti), read-out: Visual Growth Reduction (%) 14 Days After Application, ABUTH
[4] = Amaranthus retroflexus, redroot pigweed (Amaranthus retroflexus), read-out: Visual Growth Reduction (%) 14 Days After Application, AMARE
[5] = Brassica napus, oilseed rape, canola (Brassica napus), read-out: Visual Growth Reduction (%) 14 Days After Application, BRSNN
[6] = Chenopodium album, lambsquarters (Chenopodium album), read-out: Visual Growth Reduction (%) 14 Days After Application, CHEAL
[7] = Euphorbia heterophylla, wild poinsettia (Euphorbia heterophylla), read-out: Visual Growth Reduction (%) 14 Days After Application, EPHHL
[8] = Helianthus annuus, sunflower (Helianthus annuus), read-out: Visual Growth Reduction (%) 14 Days After Application, HELAN
[9] = Cyperus esculentus, yellow nutsedge (Cyperus esculentus), read-out: Visual Growth Reduction (%) 14 Days After Application, CYPES
[10] = Echinochloa crus-galli, barnyardgrass (Echinochloa crus-galli), read-out: Visual Growth Reduction (%) 14 Days After Application, ECHCG
[11] = Oryza sativa, rice (Oryza sativa), read-out: Visual Growth Reduction (%) 14 Days After Application, ORYSA
[12] = Setaria faberi, giant foxtail (Setaria faberi), read-out: Visual Growth Reduction (%) 14 Days After Application, SETFA
[13] = Triticum aestivum, wheat, spring (Triticum aestivum), read-out: Visual Growth Reduction (%) 14 Days After Application, TRZAS
[14] = Zea mays, maize, corn (Zea mays), read-out: Visual Growth Reduction (%) 14 Days After Application, ZEAMX

Row | SMILES | pest or weed control at 35 g/ha [1, 3] [%] | pest or weed control at 70 g/ha [1, 3] [%] | pest or weed control at 140 g/ha [1, 3] [%] | pest or weed control at 35 g/ha [1, 4] [%] | pest or weed control at 70 g/ha [1, 4] [%] | pest or weed control at 140 g/ha [1, 4] [%] | pest or weed control at 35 g/ha [1, 5] [%] | pest or weed control at 70 g/ha [1, 5] [%] | pest or weed control at 140 g/ha [1, 5] [%] | pest or weed control at 35 g/ha [1, 6] [%] | pest or weed control at 70 g/ha [1, 6] [%] | pest or weed control at 140 g/ha [1, 6] [%] | pest or weed control at 35 g/ha [1, 7] [%] | pest or weed control at 70 g/ha [1, 7] [%] | pest or weed control at 140 g/ha [1, 7] [%] | pest or weed control at 35 g/ha [1, 8] [%] | pest or weed control at 70 g/ha [1, 8] [%] | pest or weed control at 140 g/ha [1, 8] [%] | pest or weed control at 35 g/ha [2, 9] [%] | pest or weed control at 70 g/ha [2, 9] [%] | further results
1 | Nc1cc(-c2ccc3cc[nH]c3c2)nc(C(=O)O)c1Cl [Compound 1.22] | 0 to 29 | 0 to 29 | 0 to 29 | 75 to 84 | 75 to 84 | 85 to 94 | 45 to 59 | 60 to 74 | 60 to 74 | 0 to 29 | 0 to 29 | 0 to 29 | 45 to 59 | 75 to 84 | 85 to 94 | 75 to 84 | 85 to 94 | 85 to 94 | 0 to 29 | 0 to 29 | pest or weed control at 140 g/ha [2, 9]: 0 to 29%; pest or weed control at 35 g/ha [2, 10]: 0 to 29%; pest or weed control at 70 g/ha [2, 10]: 0 to 29%; pest or weed control at 140 g/ha [2, 10]: 0 to 29%; pest or weed control at 35 g/ha [2, 11]: 0 to 29%; pest or weed control at 70 g/ha [2, 11]: 0 to 29%; pest or weed control at 140 g/ha [2, 11]: 0 to 29%; pest or weed control at 35 g/ha [2, 12]: 0 to 29%; pest or weed control at 70 g/ha [2, 12]: 60 to 74%; pest or weed control at 140 g/ha [2, 12]: 85 to 94%; pest or weed control at 35 g/ha [2, 13]: 0 to 29%; pest or weed control at 70 g/ha [2, 13]: 0 to 29%; pest or weed control at 140 g/ha [2, 13]: 0 to 29%; pest or weed control at 35 g/ha [2, 14]: 0 to 29%; pest or weed control at 70 g/ha [2, 14]: 0 to 29%; pest or weed control at 140 g/ha [2, 14]: 0 to 29%; melting point: 172 to 174 °C
2 | COC(=O)c1nc(-c2c(F)cc3cc[nH]c3c2F)cc(N)c1Cl [Compound 1.27, Methyl 4-amino-3-chloro-6-(5,7-difluoro-1H-indol-6-yl)picolinate] | 60 to 74 | 85 to 94 | 85 to 94 | 60 to 74 | 95 to 100 | 95 to 100 | 85 to 94 | 95 to 100 | 95 to 100 | 85 to 94 | 85 to 94 | 85 to 94 | 95 to 100 | 95 to 100 | 95 to 100 | 0 to 29 | 0 to 29 | 0 to 29 | 0 to 29 | 0 to 29 | pest or weed control at 140 g/ha [2, 9]: 0 to 29%; pest or weed control at 35 g/ha [2, 10]: 0 to 29%; pest or weed control at 70 g/ha [2, 10]: 0 to 29%; pest or weed control at 140 g/ha [2, 10]: 0 to 29%; pest or weed control at 35 g/ha [2, 11]: 0 to 29%; pest or weed control at 70 g/ha [2, 11]: 0 to 29%; pest or weed control at 140 g/ha [2, 11]: 0 to 29%; pest or weed control at 35 g/ha [2, 12]: 0 to 29%; pest or weed control at 70 g/ha [2, 12]: 0 to 29%; pest or weed control at 140 g/ha [2, 12]: 0 to 29%; pest or weed control at 35 g/ha [2, 13]: 0 to 29%; pest or weed control at 70 g/ha [2, 13]: 0 to 29%; pest or weed control at 140 g/ha [2, 13]: 0 to 29%; pest or weed control at 35 g/ha [2, 14]: 0 to 29%; pest or weed control at 70 g/ha [2, 14]: 0 to 29%; pest or weed control at 140 g/ha [2, 14]: 0 to 29%; melting point: 169 to 171 °C

— patent US20170050957A1, “4-AMINO-6-(HETEROCYCLIC)PICOLINATES AND 6-AMINO-2-(HETEROCYCLIC)PYRIMIDINE-4-CARBOXYLATES AND THEIR USE AS HERBICIDES” (Dow AgroSciences LLC, priority 2013, published 2017)
